These results are taken from patent US20230093861A1, “RAPAMYCIN ANALOGS AS MTOR INHIBITORS” (Revolution Medicines, Inc., priority 2017, published 2023).

The subject of one assay is P-4E-BP1 (T37/46). Briefly: Cell based AlphaLISA assay, inhibition of P-4E-BP1 (T37/46) (mTORC1 substrate phosphorylation) in MDA-MB-468 cells. The settings on record: Homo sapiens, MDA-MB-468, 4 h, AlphaLISA, two to four hours at 37° C., read-out: pIC50 for Inhibition of mTORC1 and mTORC2 Substrate Phosphorylation, P-4E-BP1-(T37/46) (converted). Summed up:
(§1)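 IC50s come from control-normalized curve fits of duplicate Alpha signals. Cell lysates were probed with SureFire Ultra kits for mTORC1 substrates 4E-BP1 T37/46 and P70S6K T389 and mTORC2 substrate Akt S473 in MDA-MB-468 cells exposed to inhibitor.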
(In general: Bead proximity is the source of the signal in Alpha formats.)

The subject of a further assay is P-Akt (S473). Briefly: Cell based AlphaLISA assay, inhibition of P-Akt (S473) (mTORC2 substrate phosphorylation) in MDA-MB-468 cells. Conditions: Homo sapiens, MDA-MB-468, 4 h, AlphaLISA, two to four hours at 37° C., read-out: pIC50 for Inhibition of mTORC1 and mTORC2 Substrate Phosphorylation, p-AKT 1/2/3 -(S473) (converted). Put shortly:
as §1

The next assay concerns P-P70S6K (T389). Briefly: Cell based AlphaLISA assay, inhibition of P-P70S6K (T389) (mTORC1 substrate phosphorylation) in MDA-MB-468 cells. Conditions: Homo sapiens, 4 h, AlphaLISA, two to four hours at 37° C., read-out: pIC50 for Inhibition of mTORC1 and mTORC2 Substrate Phosphorylation, P-P70S6K-(T389) (converted). Summed up: as §1

`COc1ccc(-c2ccc3ncc4c(c3c2)n(-c2ccc(N3CCN(C(=O)CCOCCOCCOCCOCCOCCOCCOCCOCCn5cc(CCCCO[C@@H]6CC[C@@H](C[C@@H](C)[C@@H]7CC(=O)[C@H](C)/C=C(\C)[C@@H](O)[C@@H](OC)C(=O)[C@H](C)C[C@H](C)/C=C/C=C/C=C(\C)[C@@H](OC)C[C@@H]8CC[C@@H](C)[C@@](O)(O8)C(=O)C(=O)N8CCCC[C@H]8C(=O)O7)C[C@H]6OC)nn5)CC3)c(C(F)(F)F)c2)c(=O)n4C)cn1` [Example 11]: the results for the IC50 in the assay on P-4E-BP1 (T37/46), with P-Akt (S473) and with P-P70S6K (T389) were under 3.16 nM, under 3.16 nM and under 1 nM, respectively.

`CCO[C@@H]1C[C@@H]([C@H](C)C[C@@H]2CC[C@@H](O)[C@H](OC)C2)OC(=O)[C@@H]2CCCCN2C(=O)C(=O)[C@]2(O)O[C@@H](CC[C@H]2C)C[C@H](OC)/C(C)=C/C=C/C=C/[C@@H](C)C[C@@H](C)C(=NOCc2cn(CCOCCOCCOCCOCCOCCOCCC(=O)NCCCCn3nc(-c4ccc5oc(N)nc5c4)c4c(N)ncnc43)nn2)[C@H](OC)[C@H](O)/C(C)=C/[C@H]1C` [Example 65]: the IC50 was 3.16 to 31.6 nM with P-4E-BP1 (T37/46), 31.6 to 1000 nM in the assay with P-Akt (S473) and 1 to 10 nM in the assay with P-P70S6K (T389).

In the case of `CO[C@H]1C[C@@H]2CC[C@@H](C)[C@@](O)(O2)C(=O)C(=O)N2CCCC[C@H]2C(=O)O[C@H]([C@H](C)C[C@@H]2CC[C@@H](OC(=O)NCc3cn(CCOCCOCCOCCOCCOCCOCCC(=O)NCCCCn4nc(-c5ccc6oc(N)nc6c5)c5c(N)ncnc54)nn3)[C@H](OC)C2)CC(=O)[C@H](C)/C=C(\C)[C@@H](O)[C@@H](OC)C(=O)[C@H](C)C[C@H](C)/C=C/C=C/C=C/1C` [Example 60], the IC50 with P-4E-BP1 (T37/46) is under 3.16 nM; in the assay on P-Akt (S473), 3.16 to 31.6 nM; in the assay on P-P70S6K (T389), under 1 nM.

With `CO[C@H]1C[C@@H]2CC[C@@H](C)[C@@](O)(O2)C(=O)C(=O)N2CCCC[C@H]2C(=O)O[C@H]([C@H](C)C[C@@H]2CC[C@H](n3cc(-c4cnc(N5CCN(c6ncc(C(=O)NCCOCCOCCOCCOCCOCCC(=O)NCCCCn7nc(-c8cc9cc(O)ccc9[nH]8)c8c(N)ncnc87)cn6)CC5)nc4)nn3)[C@H](OC)C2)CC(=O)[C@H](C)/C=C(\C)[C@@H](O)[C@@H](OC)C(=O)[C@H](C)C[C@H](C)/C=C/C=C/C=C/1C` [Example 119], the IC50 was over 1000 nM with P-4E-BP1 (T37/46), over 1000 nM with P-Akt (S473) and under 1 nM in the assay with P-P70S6K (T389).

Consider `CO[C@H]1C[C@@H]2CC[C@@H](C)[C@@](O)(O2)C(=O)C(=O)N2CCCC[C@H]2C(=O)O[C@H]([C@H](C)C[C@@H]2CC[C@@H](OCc3cccc(-c4cnc(N5CCN(Cc6cn(CCOCCOCCOCCC(=O)NCCCCn7nc(-c8ccc9oc(N)nc9c8)c8c(N)ncnc87)nn6)C(CO)C5)nc4)c3)[C@H](OC)C2)CC(=O)[C@H](C)/C=C(\C)[C@@H](O)[C@@H](OC)C(=O)[C@H](C)C[C@H](C)/C=C/C=C/C=C/1C` (stereo partly drawn) [Example 25], for which the IC50 with P-4E-BP1 (T37/46) is under 3.16 nM; with P-Akt (S473), 3.16 to 31.6 nM; with P-P70S6K (T389) it was under 1 nM.

For `CO[C@H]1C[C@@H]2CC[C@@H](C)[C@@](O)(O2)C(=O)C(=O)N2CCCC[C@H]2C(=O)O[C@H]([C@H](C)C[C@@H]2CC[C@@H](OCCCCc3cn(CCOCCOCCOCCOCCOCCOCCC(=O)NCc4ccc(Cn5nc(-c6ccc7oc(N)nc7c6)c6c(N)ncnc65)cc4)nn3)[C@H](OC)C2)CC(=O)[C@H](C)/C=C(\C)[C@@H](O)[C@@H](OC)C(=O)[C@H](C)C[C@H](C)/C=C/C=C/C=C/1C` [Example 86], the values for the IC50 in the assay on P-4E-BP1 (T37/46), in the assay on P-Akt (S473) and with P-P70S6K (T389) were under 3.16 nM, 3.16 to 31.6 nM and under 1 nM, respectively.

For `CO[C@H]1C[C@@H]2CC[C@@H](C)[C@@](O)(O2)C(=O)C(=O)N2CCCC[C@H]2C(=O)O[C@H]([C@H](C)C[C@@H]2CC[C@@H](OCc3cccc(-c4cnc(N5CCN(Cc6cn(CCOCCOCCOCCC(=O)NCCCCn7nc(-c8ccc9oc(N)nc9c8)c8c(N)ncnc87)nn6)CC5)nc4)c3)[C@H](OC)C2)CC(=O)[C@H](C)/C=C(\C)[C@@H](O)[C@@H](OC)C(=O)[C@H](C)C[C@H](C)/C=C/C=C/C=C/1C` [Example 22], the values for the IC50 in the assay with P-4E-BP1 (T37/46), in the assay on P-Akt (S473) and in the assay with P-P70S6K (T389) were under 3.16 nM, 3.16 to 31.6 nM and under 1 nM, respectively.

For the compound `CO[C@H]1C[C@@H]2CC[C@@H](C)[C@@](O)(O2)C(=O)C(=O)N2CCCC[C@H]2C(=O)O[C@H]([C@H](C)C[C@@H]2CC[C@@H](OCCCCc3cn(CCOCCOCCOCCC(=O)NCCOCCOCCOCCC(=O)NCCCCn4nc(-c5ccc6oc(N)nc6c5)c5c(N)ncnc54)nn3)[C@H](OC)C2)CC(=O)[C@H](C)/C=C(\C)[C@@H](O)[C@@H](OC)C(=O)[C@H](C)C[C@H](C)/C=C/C=C/C=C/1C` [Example 198], the results for the IC50 in the assay on P-4E-BP1 (T37/46), with P-Akt (S473) and in the assay on P-P70S6K (T389) were under 3.16 nM, 3.16 to 31.6 nM and under 1 nM, respectively.

Regarding `CO[C@H]1C[C@@H]2CC[C@@H](C)[C@@](O)(O2)C(=O)C(=O)N2CCCC[C@H]2C(=O)O[C@H]([C@H](C)C[C@@H]2CC[C@H](n3cc(-c4cccc(C(=O)NCCOCCOCCOCCC(=O)NCCOCCOCCOCCC(=O)NCCCCn5nc(-c6ccc7oc(N)nc7c6)c6c(N)ncnc65)c4)nn3)[C@H](OC)C2)CC(=O)[C@H](C)/C=C(\C)[C@@H](O)[C@@H](OC)C(=O)[C@H](C)C[C@H](C)/C=C/C=C/C=C/1C` [Example 137], the IC50 in the assay on P-4E-BP1 (T37/46) is 3.16 to 31.6 nM; with P-Akt (S473), 31.6 to 1000 nM; in the assay on P-P70S6K (T389), 1 to 10 nM.

As for `CO[C@H]1C[C@@H]2CC[C@@H](C)[C@@](O)(O2)C(=O)C(=O)N2CCCC[C@H]2C(=O)O[C@H]([C@H](C)C[C@@H]2CC[C@@H](O)[C@H](OC)C2)C[C@@H](OC)[C@H](C)/C=C(\C)[C@@H](O)[C@@H](OC)C(=NOCc2cn(CCOCCOCCOCCOCCOCCNC(=O)CCC(=O)NCCCCn3nc(-c4ccc5oc(N)nc5c4)c4c(N)ncnc43)nn2)[C@H](C)C[C@H](C)/C=C/C=C/C=C/1C` [Example 105], the IC50 is 3.16 to 31.6 nM in the assay with P-4E-BP1 (T37/46), 31.6 to 1000 nM with P-Akt (S473) and 1 to 10 nM in the assay with P-P70S6K (T389).

In the case of `CO[C@H]1C[C@@H]2CC[C@@H](C)[C@@](O)(O2)C(=O)C(=O)N2CCCC[C@H]2C(=O)O[C@H]([C@H](C)C[C@@H]2CC[C@@H](O)[C@H](OC)C2)C[C@@H](O)[C@H](C)/C=C(\C)[C@@H](O)[C@@H](OC)C(=NOCc2cn(-c3cnc(N4CCN(c5ncc(C(=O)NCCOCCOCCOCCC(=O)NCCCCn6nc(-c7ccc8oc(N)nc8c7)c7c(N)ncnc76)cn5)CC4)nc3)nn2)[C@H](C)C[C@H](C)/C=C/C=C/C=C/1C` [Example 193], the results for the IC50 in the assay on P-4E-BP1 (T37/46), in the assay with P-Akt (S473) and with P-P70S6K (T389) were 3.16 to 31.6 nM, over 1000 nM and under 1 nM, respectively.

For `CO[C@H]1C[C@@H]2CC[C@@H](C)[C@@](O)(O2)C(=O)C(=O)N2CCCC[C@H]2C(=O)O[C@H]([C@H](C)C[C@@H]2CC[C@H](n3cc(-c4cnc(N5CCN(c6ncc(C(=O)NCCOCCOCCOCCOCCC(=O)NCCCCn7nc(-c8ccc9oc(N)nc9c8)c8c(N)ncnc87)cn6)CC5)nc4)nn3)[C@H](OC)C2)CC(=O)[C@H](C)/C=C(\C)[C@@H](O)[C@@H](OC)C(=O)[C@H](C)C[C@H](C)/C=C/C=C/C=C/1C` [Example 115], the values for the IC50 in the assay on P-4E-BP1 (T37/46), in the assay on P-Akt (S473) and in the assay on P-P70S6K (T389) were under 3.16 nM, under 3.16 nM and under 1 nM, respectively.

`CO[C@H]1C[C@@H]2CC[C@@H](C)[C@@](O)(O2)C(=O)C(=O)N2CCCC[C@H]2C(=O)O[C@H]([C@H](C)C[C@@H]2CC[C@@H](O)[C@H](OC)C2)C[C@@H](O)[C@H](C)/C=C(\C)[C@@H](O)[C@@H](OC)C(=NOCc2cn(-c3cnc(N4CCN(c5ncc(C(=O)NCCOCCC(=O)NCCCCn6nc(-c7ccc8oc(N)nc8c7)c7c(N)ncnc76)cn5)CC4)nc3)nn2)[C@H](C)C[C@H](C)/C=C/C=C/C=C/1C` [Example 191]: the IC50 in the assay with P-4E-BP1 (T37/46) was under 3.16 nM; with P-Akt (S473), over 1000 nM; in the assay with P-P70S6K (T389) it was under 1 nM.

Turning to `COc1cccc2cc(-c3nc([C@H]4CC[C@H](C(=O)NCCOCCOCCNC(=O)CCOCCOCCOCCOCCn5cc(CCCCO[C@@H]6CC[C@@H](C[C@@H](C)[C@@H]7CC(=O)[C@H](C)/C=C(\C)[C@@H](O)[C@@H](OC)C(=O)[C@H](C)C[C@H](C)/C=C/C=C/C=C(\C)[C@@H](OC)C[C@@H]8CC[C@@H](C)[C@@](O)(O8)C(=O)C(=O)N8CCCC[C@H]8C(=O)O7)C[C@H]6OC)nn5)CC4)n4ncnc(N)c34)[nH]c12` [Example 187], the values for the IC50 in the assay with P-4E-BP1 (T37/46), with P-Akt (S473) and in the assay on P-P70S6K (T389) were under 3.16 nM, 3.16 to 31.6 nM and under 1 nM, respectively.

For `CO[C@H]1C[C@@H]2CC[C@@H](C)[C@@](O)(O2)C(=O)C(=O)N2CCCC[C@H]2C(=O)O[C@H]([C@H](C)C[C@@H]2CC[C@H](n3cc(COC(=O)NCCOCCOCCOCCC(=O)NCCOCCOCCOCCC(=O)NCCCCn4nc(-c5cc6cc(O)ccc6[nH]5)c5c(N)ncnc54)nn3)[C@H](OC)C2)C[C@@H](OC)[C@H](C)/C=C(\C)[C@@H](O)[C@@H](OC)C(=O)[C@H](C)C[C@H](C)/C=C/C=C/C=C/1C` [Example 146], the IC50 with P-4E-BP1 (T37/46) is over 1000 nM; in the assay with P-Akt (S473), over 1000 nM; in the assay on P-P70S6K (T389) it was 1 to 10 nM.

For the compound `CCO[C@@H]1C[C@@H]([C@H](C)C[C@@H]2CC[C@H](n3cc(CCCC(=O)NCCOCCOCCOCCC(=O)NCCOCCOCCC(=O)NCCCCn4nc(-c5ccc6oc(N)nc6c5)c5c(N)ncnc54)nn3)[C@H](OC)C2)OC(=O)[C@@H]2CCCCN2C(=O)C(=O)[C@]2(O)O[C@@H](CC[C@H]2C)C[C@H](OC)/C(C)=C/C=C/C=C/[C@@H](C)C[C@@H](C)C(=O)[C@H](OC)[C@H](O)/C(C)=C/[C@H]1C` [Example 165], the IC50 was 31.6 to 1000 nM in the assay with P-4E-BP1 (T37/46), over 1000 nM with P-Akt (S473) and 1 to 10 nM in the assay with P-P70S6K (T389).
